Where a SMILES comes first, the peptide text is derived from it. Where no end group is shown, it is not given here.
Tested on: C28/I2, human chondrocyte cell line
Assay: CCK-8 cytotoxicity assay
Type: cell-based
Details: C28/I2 cells, different concentrations, 3 days, 450 nm; FIG. 1, FIG. 2
Method: The cytotoxicity of Peptide-1 or Peptide-2 upon addition to human-derived chondrocytes (C28/I2, human chondrocyte cell line) was analyzed using a CCK-8 assay.
Specifically, human-derived chondrocytes were seeded in a 96-well plate at a density of 3 × 10^3 cells/well and cultured in DMEM medium (cat. 11995-065, Gibco) for 24 hours.

Row | Molecule | toxicity in human-derived chondrocytes (CCK-8 activity)
1 | CC(C)C[C@H](NC(=O)[C@@H](NC(=O)[C@@H](N)CCCNC(=N)N)[C@@H](C)O)C(=O)N[C@@H](CCC(=O)O)C(=O)O [Peptide-2, RTLE] (H-RTLE-OH) | did not exhibit toxicity
2 | HHEERY [Peptide-1, HHEERY] | did not exhibit toxicity
